Data from US10392630B2, “Plants having increased tolerance to herbicides” (BASF AGRO B.V., priority 2013, dated 2019).
Values joined by “and” are separate entries in the source; they are usually repeats but may differ in a detail not shown here. Identical values can stand only once.

What was measured:
[1] = system: Alopecurus wildtype PPO (ALOMY), PPO herbicide sensitive PPO2, SEQ ID NO 2; test: PPO enzyme assay, dose-response (fluorescence), wildtype Alopecurus PPO2; format: biochemical, Alopecurus myosuroides; conditions: Table 3a; PPO herbicide sensitive PPO2, SEQ ID NO 2, ALOMY
[2] = target: Alopecurus mutant PPO (ALOMY), SEQ ID NO 2 with amino acid substitution; test: PPO enzyme assay, dose-response (fluorescence), mutated Alopecurus PPO2; format: biochemical, Alopecurus myosuroides
[3] = system: transgenic Arabidopsis thaliana plants; test: Growth inhibition of transgenic Arabidopsis in 48-well plates, tolerance factor (Table 5, FIG. 2); format: in vivo; conditions: growth inhibition seven to ten days after seeding
[4] = system: transgenic T0 corn events; test: Herbicide injury of transgenic T0 corn events, greenhouse spray (Table 6a); format: in vivo, Zea mays; parameters: key: 0 is no injury relative to an unsprayed wild type check; 9 is completely dead; conditions: 7 days after treatment
[5] = system: transgenic soybean cv Jake cuttings; test: Herbicide injury of transgenic soybean cuttings from T0 plants (Table 7, FIG. 4); format: in vivo, Glyceine max; conditions: V2 spray, 1 week after treatment

## CC(C)N(C)S(=O)(=O)NC(=O)c1cc(-n2c(=O)cc(C(F)(F)F)n(C)c2=O)c(F)cc1Cl [saflufenacil]
[1]
  IC50: 211 nM
[2]
  IC50: > 10000 nM
[3]; transgenic Arabidopsis Am_PPO2_F438I
  TF (Tolerance Factor), relative tolerance rate (non-transgenic = 1.0): 3300
[3]; transgenic Arabidopsis Am_PPO2_R137A
  TF (Tolerance Factor), relative tolerance rate (non-transgenic = 1.0): 1500
[3]; transgenic Arabidopsis Am_PPO2_R137A_F438I
  TF (Tolerance Factor), relative tolerance rate (non-transgenic = 1.0): 950
[3]; transgenic Arabidopsis Am_PPO2_R137A_F438L
  TF (Tolerance Factor), relative tolerance rate (non-transgenic = 1.0): 2300
[3]; transgenic Arabidopsis Am_PPO2_R137A_F438M
  TF (Tolerance Factor), relative tolerance rate (non-transgenic = 1.0): 2500
[3]; transgenic Arabidopsis Am_PPO2_R137A_F438V
  TF (Tolerance Factor), relative tolerance rate (non-transgenic = 1.0): 2500
[3]; transgenic Arabidopsis Am_PPO2_R137I
  TF (Tolerance Factor), relative tolerance rate (non-transgenic = 1.0): 2140
[3]; transgenic Arabidopsis Am_PPO2_R137L_F438I
  TF (Tolerance Factor), relative tolerance rate (non-transgenic = 1.0): 2700
[3]; transgenic Arabidopsis Am_PPO2_R137L_F438L
  TF (Tolerance Factor), relative tolerance rate (non-transgenic = 1.0): 2700
[3]; transgenic Arabidopsis Am_PPO2_R137L_F438M
  TF (Tolerance Factor), relative tolerance rate (non-transgenic = 1.0): 3100
[3]; transgenic Arabidopsis Am_PPO2_R137M_F438I
  TF (Tolerance Factor), relative tolerance rate (non-transgenic = 1.0): 1740
[3]; transgenic Arabidopsis Am_PPO2_R137M_F438L
  TF (Tolerance Factor), relative tolerance rate (non-transgenic = 1.0): 1340
[3]; transgenic Arabidopsis Am_PPO2_R137M_F438M
  TF (Tolerance Factor), relative tolerance rate (non-transgenic = 1.0): 1700
[3]; transgenic Arabidopsis Am_PPO2_R137M_F438V
  TF (Tolerance Factor), relative tolerance rate (non-transgenic = 1.0): 1900
[4]; T0 corn events tp-SorbiPPO2::AlomyPPO2_F431V, 75 g ai/ha + 1% (v/v) MSO at V2 stage
  Herbicide injury, 0 to 9 rating scale: 3
[4]; T0 corn events tp-SorbiPPO2::AlomyPPO2_R130A_F431V, 75 g ai/ha + 1% (v/v) MSO at V2 stage
  Herbicide injury, 0 to 9 rating scale: 7
[4]; T0 corn events tp-ZeamaPPO2::AlomyPPO2_F431V, 75 g ai/ha + 1% (v/v) MSO at V2 stage
  Herbicide injury, 0 to 9 rating scale: 0
[4]; T0 corn events tp-ZeamaPPO2::AlomyPPO2_R130A, 75 g ai/ha + 1% (v/v) MSO at V2 stage
  Herbicide injury, 0 to 9 rating scale: 0
[4]; untransformed wild type corn, 50 g ai/ha + 1% (v/v) MSO at V2 stage
  Herbicide injury, 0 to 9 rating scale: 7
[4]; untransformed wild type corn, 75 g ai/ha + 1% (v/v) MSO at V2 stage
  Herbicide injury, 0 to 9 rating scale: 8
[4]; untransformed wild type corn, 100 g ai/ha + 1% (v/v) MSO at V2 stage
  Herbicide injury, 0 to 9 rating scale: 8
[5]; AlomyPPO1_R138A T0 cuttings, BAS 800H 25 g ai/ha
  Herbicide injury: 6 and 9
[5]; AlomyPPO1_R138A_Y420M T0 cuttings, BAS 800H 25 g ai/ha
  Herbicide injury: 0
[5]; AlomyPPO1_R138A_Y420M T0 cuttings, BAS 800H 50 g ai/ha
  Herbicide injury: 3
[5]; AlomyPPO1_R138A_Y420M T0 cuttings, BAS 800H 100 g ai/ha
  Herbicide injury: 3
[5]; AlomyPPO1_R138L T0 cuttings, BAS 800H 25 g ai/ha
  Herbicide injury: 8 and 7 and 6
[5]; AlomyPPO1_R138L T0 cuttings, BAS 800H 50 g ai/ha
  Herbicide injury: 8 and 9 and 6 and 7
[5]; AlomyPPO1_R138L T0 cuttings, BAS 800H 100 g ai/ha
  Herbicide injury: 8 and 9
[5]; AlomyPPO1_Y420M T0 cuttings, BAS 800H 50 g ai/ha
  Herbicide injury: 5 and 4 and 8
[5]; AlomyPPO1_Y420M T0 cuttings, BAS 800H 100 g ai/ha
  Herbicide injury: 5 and 4 and 8
[5]; AlomyPPO2_R137A T0 cuttings, BAS 800H 25 g ai/ha
  Herbicide injury: 3
[5]; AlomyPPO2_R137A T0 cuttings, BAS 800H 50 g ai/ha
  Herbicide injury: 0
[5]; AlomyPPO2_R137A T0 cuttings, BAS 800H 100 g ai/ha
  Herbicide injury: 2
[5]; AlomyPPO2_R137A_F438L T0 cuttings, BAS 800H 200 g ai/ha
  Herbicide injury: 6 and 9
[5]; AlomyPPO2_R137A_F438V T0 cuttings, BAS 800H 200 g ai/ha
  Herbicide injury: 4 and 3 and 6
[5]; AlomyPPO2_R137L_F438I T0 cuttings, BAS 800H 100 g ai/ha
  Herbicide injury: 9
[5]; AlomyPPO2_R137L_F438I T0 cuttings, BAS 800H 200 g ai/ha
  Herbicide injury: 9
[5]; AlomyPPO2_R137M_F438L T0 cuttings, BAS 800H 50 g ai/ha
  Herbicide injury: 4
[5]; AlomyPPO2_R137M_F438L T0 cuttings, BAS 800H 100 g ai/ha
  Herbicide injury: 6 and 3
[5]; AlomyPPO2_R137M_F438M T0 cuttings, BAS 800H 50 g ai/ha
  Herbicide injury: 9
[5]; Wild type cuttings, BAS 800H 25 g ai/ha
  Herbicide injury: 9
[5]; Wild type cuttings, BAS 800H 50 g ai/ha
  Herbicide injury: 9
[5]; Wild type cuttings, BAS 800H 100 g ai/ha
  Herbicide injury: 9
[5]; Wild type cuttings, BAS 800H 200 g ai/ha
  Herbicide injury: 9
